Assay results published in ChEMBL document CHEMBL1201862, “PubChem BioAssay data set” (2004).
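A five-concentration, 48-hour dose response in 96-well plates underlies each endpoint, interpolated linearly between surrounding concentrations. GI50 = concentration required for 50% inhibition of growth.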 Active and inactive are the calls of the source. No stated cut-off is given here; in the data, active = GI50 up to about 1.1 µM and inactive = higher.

Columns and labels:
Experiment in all cases: NCI tumour cell line growth inhibition, 48 h
NCI-H522 = system: NCI-H522
HOP-62 = system: HOP-62
SK-MEL-2 = system: SK-MEL-2
SK-MEL-28 = system: SK-MEL-28
SK-OV-3 = system: SK-OV-3
ACHN = system: ACHN
OVCAR-3 = system: OVCAR-3
KM-20L2 = system: KM-20L2
HCC 2998 = system: HCC 2998
SF-295 = system: SF-295
MOLT-4 = system: MOLT-4
RXF 631 = system: RXF 631
UACC-62 = system: UACC-62
HOP-92 = system: HOP-92
SF-268 = system: SF-268
SF-539 = system: SF-539
K562 = system: K562
786-0 = system: 786-0
SK-MEL-5 = system: SK-MEL-5
M14 = system: M14
CCRF-CEM = system: CCRF-CEM
SW-620 = system: SW-620
SNB-75 = system: SNB-75
COLO 205 = system: COLO 205
DMS-273 = system: DMS-273
NCI-H460 = system: NCI-H460
IGROV-1 = system: IGROV-1
KM12 = system: KM12
DLD-1 = system: DLD-1
OVCAR-5 = system: OVCAR-5
LOX IMVI = system: LOX IMVI
UO-31 = system: UO-31
RPMI-8226 = system: RPMI-8226
EKVX = system: EKVX
NCI-H226 = system: NCI-H226
HL-60 = system: HL-60
A549 = system: A549
M19-MEL = system: M19-MEL
RXF 393 = system: RXF 393
HCT-116 = system: HCT-116
A498 = system: A498
HT-29 = system: HT-29
U-251 = system: U-251
TK-10 = system: TK-10
SNB-78 = system: SNB-78
NCI-H23 = system: NCI-H23
UACC-257 = system: UACC-257
XF498 = system: XF498
Malme-3M = system: Malme-3M
LXFL 529 = system: LXFL 529
OVCAR-8 = system: OVCAR-8
SNB-19 = system: SNB-19
HCT-15 = system: HCT-15
SR = system: SR
HOP-18 = system: HOP-18
CAKI-1 = system: CAKI-1
SN12C = system: SN12C
DMS-114 = system: DMS-114
OVCAR-4 = system: OVCAR-4
MCF7 = system: MCF7
NCI/ADR-RES = system: NCI/ADR-RES

Measured: GI50

C/C(CC(=O)Nc1ccccc1C)=N/NS(=O)(=O)c1ccc(C)cc1
inactive: NCI-H522 > 100 µM | HOP-62 > 100 µM | SK-MEL-2 > 100 µM | SK-MEL-28 > 100 µM | SK-OV-3 > 100 µM | ACHN > 100 µM | OVCAR-3 > 100 µM | KM-20L2 > 100 µM | HCC 2998 > 100 µM | SF-295 > 100 µM | MOLT-4 > 100 µM | RXF 631 > 100 µM | UACC-62 > 100 µM | HOP-92 > 100 µM | SF-268 > 100 µM | SF-539 > 100 µM | K562 > 100 µM | 786-0 > 100 µM | SK-MEL-5 > 100 µM | M14 > 100 µM | CCRF-CEM > 100 µM | SW-620 > 100 µM | SNB-75 > 100 µM | COLO 205 > 100 µM | DMS-273 > 100 µM | NCI-H460 > 100 µM | IGROV-1 > 100 µM | KM12 > 100 µM | DLD-1 > 100 µM | OVCAR-5 > 100 µM | LOX IMVI > 100 µM | UO-31 > 100 µM | RPMI-8226 > 100 µM | EKVX > 100 µM | NCI-H226 > 100 µM | HL-60 > 100 µM | A549 > 100 µM | M19-MEL > 100 µM | RXF 393 > 100 µM | HCT-116 > 100 µM | A498 > 100 µM | HT-29 > 100 µM | U-251 > 100 µM | TK-10 > 100 µM | SNB-78 > 100 µM | NCI-H23 > 100 µM | UACC-257 > 100 µM | XF498 > 100 µM | Malme-3M > 100 µM | LXFL 529 > 100 µM | OVCAR-8 > 100 µM

O=c1c(-c2cccc3ccccc23)c(-c2cccc3ccccc23)c1=O
inactive: HOP-62 3.57 µM | SK-MEL-2 2.29 µM | SNB-19 1.48 µM | SK-MEL-28 10.6 µM | SK-OV-3 10.8 µM | MOLT-4 1.59 µM | SF-268 5.47 µM | SF-539 1.38 µM | SK-MEL-5 3 µM | M14 2.24 µM | SR 1.43 µM | HOP-18 39.8 µM | DMS-273 1.71 µM | IGROV-1 2.6 µM | DLD-1 3.28 µM | OVCAR-5 24.7 µM | LOX IMVI 1.77 µM | UO-31 11.8 µM | CAKI-1 2.91 µM | EKVX 7.67 µM | NCI-H226 2.32 µM | M19-MEL 3.07 µM | RXF 393 4.69 µM | HCT-116 1.85 µM | A498 2.45 µM | SN12C 5.06 µM | U-251 3.31 µM | TK-10 15.1 µM | DMS-114 2.1 µM | SNB-78 1.95 µM | NCI-H23 2.49 µM | UACC-257 4.25 µM | XF498 2.27 µM | Malme-3M 2.18 µM | LXFL 529 3.05 µM | OVCAR-8 2.81 µM
2.42 µM: HCT-15
active: NCI-H522 0.489 µM | ACHN 0.716 µM | OVCAR-3 0.577 µM | KM-20L2 0.379 µM | HCC 2998 0.979 µM | SF-295 0.446 µM | UACC-62 1.04 µM | HOP-92 0.948 µM | K562 0.161 µM | 786-0 0.535 µM | CCRF-CEM 0.395 µM | SW-620 0.33 µM | SNB-75 0.2 µM | COLO 205 0.363 µM | NCI-H460 0.586 µM | KM12 0.608 µM | RPMI-8226 0.736 µM | HL-60 0.721 µM | A549 0.741 µM | HT-29 0.35 µM

O=C1NC(=O)C(=O)C(c2nc3ccccc3s2)C1=O
> 100 µM: HCT-15
inactive: NCI-H522 > 100 µM | HOP-62 > 100 µM | SK-MEL-2 > 100 µM | SNB-19 > 100 µM | SK-MEL-28 > 100 µM | SK-OV-3 > 100 µM | ACHN > 100 µM | OVCAR-3 > 100 µM | KM-20L2 > 100 µM | HCC 2998 > 100 µM | SF-295 > 100 µM | MOLT-4 > 100 µM | UACC-62 > 100 µM | HOP-92 > 100 µM | SF-268 > 100 µM | SF-539 > 100 µM | 786-0 > 100 µM | SK-MEL-5 > 100 µM | M14 > 100 µM | CCRF-CEM > 100 µM | SW-620 > 100 µM | SR > 100 µM | SNB-75 > 100 µM | COLO 205 > 100 µM | HOP-18 > 100 µM | DMS-273 > 100 µM | NCI-H460 > 100 µM | IGROV-1 > 100 µM | KM12 > 100 µM | DLD-1 > 100 µM | UO-31 > 100 µM | CAKI-1 > 100 µM | EKVX > 100 µM | NCI-H226 > 100 µM | HL-60 > 100 µM | A549 > 100 µM | M19-MEL > 100 µM | RXF 393 > 100 µM | HCT-116 > 100 µM | A498 > 100 µM | SN12C > 100 µM | HT-29 > 100 µM | U-251 > 100 µM | TK-10 > 100 µM | DMS-114 > 100 µM | OVCAR-4 > 100 µM | SNB-78 > 100 µM | NCI-H23 > 100 µM | UACC-257 > 100 µM | XF498 > 100 µM | Malme-3M > 100 µM | LXFL 529 > 100 µM | OVCAR-8 > 100 µM

O=NN(CCCl)C(=O)N[C@H]1CC[C@H](CC(=O)O)CC1
inactive: NCI-H522 28 µM | HOP-62 > 94.6 µM | SK-MEL-2 > 100 µM | MCF7 > 100 µM | SNB-19 59.3 µM | SK-MEL-28 > 100 µM | SK-OV-3 > 100 µM | ACHN > 100 µM | OVCAR-3 > 100 µM | KM-20L2 > 46.5 µM | HCC 2998 > 100 µM | SF-295 34.8 µM | MOLT-4 11.9 µM | UACC-62 15.4 µM | HOP-92 > 100 µM | SF-268 18.5 µM | SF-539 26.1 µM | K562 60.3 µM | 786-0 44 µM | SK-MEL-5 > 100 µM | M14 > 100 µM | CCRF-CEM 21.1 µM | SW-620 > 69.2 µM | SR 32.2 µM | SNB-75 50.4 µM | COLO 205 > 100 µM | HOP-18 > 78.7 µM | DMS-273 > 100 µM | NCI-H460 45.2 µM | IGROV-1 > 100 µM | KM12 > 100 µM | DLD-1 > 100 µM | OVCAR-5 > 100 µM | LOX IMVI 22.1 µM | UO-31 > 100 µM | CAKI-1 > 100 µM | RPMI-8226 33.1 µM | EKVX > 46.5 µM | NCI-H226 > 100 µM | HL-60 29.7 µM | A549 87.3 µM | M19-MEL > 100 µM | RXF 393 > 100 µM | HCT-116 > 100 µM | A498 > 100 µM | NCI/ADR-RES > 100 µM | SN12C 66.8 µM | HT-29 > 100 µM | U-251 33.2 µM | TK-10 > 100 µM | DMS-114 61.9 µM | OVCAR-4 > 100 µM | SNB-78 > 100 µM | NCI-H23 > 89.1 µM | UACC-257 > 100 µM | XF498 > 100 µM | Malme-3M > 82.2 µM | LXFL 529 > 100 µM | OVCAR-8 > 100 µM
> 100 µM: HCT-15

Cc1ncc(CCl)c(CCl)c1O
inactive: NCI-H522 > 100 µM | HOP-62 > 100 µM | SK-MEL-2 > 100 µM | SK-MEL-28 > 100 µM | SK-OV-3 > 100 µM | ACHN > 100 µM | HCC 2998 > 100 µM | MOLT-4 > 100 µM | RXF 631 > 100 µM | UACC-62 > 100 µM | HOP-92 > 100 µM | SF-268 > 100 µM | SF-539 > 100 µM | K562 > 100 µM | 786-0 > 100 µM | M14 > 100 µM | CCRF-CEM > 100 µM | SR > 100 µM | SNB-75 > 100 µM | COLO 205 > 100 µM | DMS-273 > 100 µM | IGROV-1 > 100 µM | DLD-1 > 100 µM | UO-31 > 100 µM | CAKI-1 > 100 µM | RPMI-8226 > 100 µM | NCI-H226 > 100 µM | HL-60 > 100 µM | M19-MEL > 100 µM | HCT-116 > 100 µM | A498 > 100 µM | SN12C > 100 µM | DMS-114 > 100 µM | OVCAR-4 > 100 µM | NCI-H23 > 100 µM | XF498 > 100 µM | Malme-3M > 100 µM | LXFL 529 > 100 µM
